Measured values: patent US6040149A, “Assay for identifying agents which act on the ceramide-activated protein kinase, kinase suppressor of ras, and methods of using said agents” (priority 1997, dated 2000)

Tested on: ceramide-activated protein kinase
Assay: Ceramide-activated protein kinase activity (EGFR peptide) in EL-4 cell fractions
Conditions: 10 nM to 1 μM

Structure (SMILES): CCCCCCCCCCCCC/C=C/[C@@H](O)[C@@H](N)CO [sphingosine]
- enhancement of kinase activity, of control: 1.5-2.5 of control
